The RepoRT retention time repository (doi:10.1038/s41586-021-03707-9)

Columns and labels:
[1] = RP, Waters ACQUITY UPLC HSS C18, 100 × 2.1 mm, 1.7 µm, 40 °C, 0.35 mL/min, estimated dead time 0.63 min; A: water + 0.1% formic acid; B: methanol + 0.1% formic acid; gradient (min/%B) 0/0.5 4/70 4.5/98 5.4/98; conditions: stereoisomer not certain
[2] = Waters ACQUITY UPLC BEH C18, 100 × 2.1 mm, 1.7 µm, 40 °C, 0.28 mL/min, estimated dead time 0.63 min; A: water + 6.5 mM ammonium hydroxide; B: methanol + 6.5 mM ammonium hydroxide; gradient (min/%B) 0/0.5 4/70 4.5/98 5.4/98; conditions: stereoisomer not certain

O=C(O)c1cc(=O)c2ccccc2[nH]1
LC retention time [1]: 3.18 min | LC retention time [2]: 2.57 min

CSCCC(NC(C)=O)C(=O)O (stereo unspecified)
LC retention time [1]: 2.98 min | LC retention time [2]: 2.07 min

CC(C)=CCNc1ncnc2nc[nH]c12
LC retention time [1]: 3.94 min | LC retention time [2]: 4.91 min

NC(Cc1ccc(O)c([N+](=O)[O-])c1)C(=O)O (stereo unspecified)
LC retention time [1]: 2.44 min | LC retention time [2]: 1.1 min

Cn1c(=O)c2[nH]c(=O)[nH]c2n(C)c1=O
LC retention time [1]: 2.47 min | LC retention time [2]: 1.92 min

Nc1ccn(C2OC(CO)C(O)C2O)c(=O)n1 (stereo unspecified)
LC retention time [1]: 1.1 min | LC retention time [2]: 1.49 min

CN(CC(=O)O)C(=N)N
LC retention time [1]: 0.82 min | LC retention time [2]: 0.86 min

O=C(O)CNC(=O)Cc1ccccc1
LC retention time [1]: 3.49 min | LC retention time [2]: 2.69 min

CC1CNC(=O)NC1=O (stereo unspecified)
LC retention time [1]: 1.87 min | LC retention time [2]: 1.94 min

O=C(O)c1cc(=O)c2cccc(O)c2[nH]1
LC retention time [1]: 3.04 min | LC retention time [2]: 1.67 min

CCC(NC(=O)CCC(N)C(=O)O)C(=O)NCC(=O)O (stereo unspecified)
LC retention time [1]: 1.58 min | LC retention time [2]: 0.928 min

CC(=O)Nc1ccc(O)cc1
LC retention time [1]: 2.51 min | LC retention time [2]: 2.58 min

Cn1c(=O)[nH]c2ncn(C)c2c1=O
LC retention time [1]: 2.8 min | LC retention time [2]: 2.68 min

c1ccc2[nH]ccc2c1
LC retention time [1]: 4.7 min | LC retention time [2]: 4.85 min

Cc1cc2nc3c(=O)[nH]c(=O)nc-3n(CC(O)C(O)C(O)CO)c2cc1C (stereo unspecified)
LC retention time [1]: 3.5 min | LC retention time [2]: 3.61 min

Oc1cccc(O)c1O
LC retention time [1]: 1.94 min | LC retention time [2]: 1.93 min

c1ncc2[nH]cnc2n1
LC retention time [1]: 1.69 min | LC retention time [2]: 1.85 min

Cc1ncc(CO)c(C(=O)O)c1O
LC retention time [1]: 1.97 min | LC retention time [2]: 2.54 min

NC(=O)c1ncn(C2OC(CO)C(O)C2O)c1N (stereo unspecified)
LC retention time [1]: 1.58 min | LC retention time [2]: 1.77 min

Oc1ccc(C=Cc2cc(O)cc(O)c2)cc1
LC retention time [1]: 4.15 min | LC retention time [2]: 4.23 min

CC(NC(=O)Cc1c[nH]c2ccccc12)C(=O)O (stereo unspecified)
LC retention time [1]: 4 min | LC retention time [2]: 3.24 min

O=C(O)C(O)c1ccc(O)cc1 (stereo unspecified)
LC retention time [1]: 3.64 min | LC retention time [2]: 0.823 min

Nc1cc(C(=O)O)ccc1O
LC retention time [1]: 1.25 min | LC retention time [2]: 0.796 min

Cc1cc2nc[nH]c2cc1C
LC retention time [1]: 3.34 min | LC retention time [2]: 4.93 min

COc1cc(CC(=O)O)ccc1O
LC retention time [1]: 3.42 min | LC retention time [2]: 1.89 min

Cc1cnc(=O)[nH]c1N
LC retention time [1]: 0.911 min | LC retention time [2]: 1.62 min

O=c1[nH]c(=O)c2ncn(C3OC(CO)C(O)C3O)c2[nH]1 (stereo unspecified)
LC retention time [1]: 2.09 min | LC retention time [2]: 1.11 min

Cc1ccccc1C(=O)NCC(=O)O
LC retention time [1]: 3.56 min | LC retention time [2]: 2.74 min

NC(=O)CCC(NC(=O)Cc1ccccc1)C(=O)O (stereo unspecified)
LC retention time [1]: 3.27 min | LC retention time [2]: 2.69 min

CC(C)(N)C(=O)O
LC retention time [1]: 0.821 min | LC retention time [2]: 0.806 min

CCOC(=O)C(N)Cc1c[nH]c2ccccc12 (stereo unspecified)
LC retention time [1]: 3.82 min | LC retention time [2]: 5.01 min

COc1cc(O)cc(OC)c1
LC retention time [1]: 4.13 min | LC retention time [2]: 4.22 min

CCC(O)(CC)C(=O)O
LC retention time [1]: 3.56 min | LC retention time [2]: 1.31 min

O=c1ccn(C2OC(CO)C(O)C2O)c(=O)[nH]1 (stereo unspecified)
LC retention time [1]: 1.66 min | LC retention time [2]: 1.67 min

[2H]c1[nH]c2c([2H])c([2H])c([2H])c([2H])c2c1CC(=O)O
LC retention time [1]: 4.22 min | LC retention time [2]: 2.49 min

OCC1OC(OCC2OC(OC3(CO)OC(CO)C(O)C3O)C(O)C(O)C2O)C(O)C(O)C1O (stereo unspecified)
LC retention time [1]: 0.835 min | LC retention time [2]: 1.05 min

O=C(O)Cc1ccccc1
LC retention time [1]: 2.87 min | LC retention time [2]: 1.75 min

Nc1ncnc2c1ncn2C1OC(CO)C(O)C1O (stereo unspecified)
LC retention time [1]: 1.86 min | LC retention time [2]: 2.48 min

CC1(C)SC2C(NC(=O)C(N)c3ccccc3)C(=O)N2C1C(=O)O (stereo unspecified)
LC retention time [1]: 3.45 min | LC retention time [2]: 3.72 min

O=C(O)Cc1c[nH]c2ccccc12
LC retention time [1]: 4.21 min | LC retention time [2]: 2.51 min

Nc1ncnc2c1ncn2C1OC2COP(=O)(O)OC2C1O (stereo unspecified)
LC retention time [1]: 1.95 min | LC retention time [2]: 2.32 min

O=C1CC(C(=O)O)NC(=O)N1 (stereo unspecified)
LC retention time [1]: 0.995 min | LC retention time [2]: 0.767 min

CC(=O)NCCCC(=O)O
LC retention time [1]: 1.95 min | LC retention time [2]: 0.923 min

NC(CC(=O)O)C(=O)NC(Cc1ccccc1)C(=O)O (stereo unspecified)
LC retention time [1]: 2.95 min | LC retention time [2]: 1.73 min

NC(Cc1ccc([N+](=O)[O-])cc1)C(=O)O (stereo unspecified)
LC retention time [1]: 2.5 min | LC retention time [2]: 2.58 min

OC1C2COC(O2)C(O)C1O (stereo unspecified)
LC retention time [1]: 0.85 min | LC retention time [2]: 0.853 min

CCOC(=O)C1=CC(OC(CC)CC)C(NC(C)=O)C(N)C1 (stereo unspecified)
LC retention time [1]: 4.43 min | LC retention time [2]: 5.35 min

COc1cc(C(O)CN)ccc1O (stereo unspecified)
LC retention time [1]: 1.16 min | LC retention time [2]: 1.88 min

Nc1ccn(C2OC(CO)C3OP(=O)(O)OC32)c(=O)n1 (stereo unspecified)
LC retention time [1]: 0.912 min | LC retention time [2]: 0.926 min

O=C(O)CCCCCCC(=O)NCC(=O)O
LC retention time [1]: 3.35 min | LC retention time [2]: 0.865 min

Nc1ncnc2nc[nH]c12
LC retention time [1]: 1.05 min | LC retention time [2]: 1.99 min

O=C(O)c1ccc(CO)o1
LC retention time [1]: 2.36 min | LC retention time [2]: 0.87 min

CC(=O)NCCc1c[nH]c2ccc(O)cc12
LC retention time [1]: 3.01 min | LC retention time [2]: 3.09 min

Nc1ccn(C2CC(O)C(CO)O2)c(=O)n1 (stereo unspecified)
LC retention time [1]: 1.29 min | LC retention time [2]: 1.73 min

COc1cc(C(=O)O)cc(OC)c1O
LC retention time [1]: 3.43 min | LC retention time [2]: 1.59 min

CCN1CCCC1CNC(=O)c1cc(S(N)(=O)=O)ccc1OC (stereo unspecified)
LC retention time [1]: 2.24 min | LC retention time [2]: 4.29 min

Nc1ccccc1C(=O)CC(N)C(=O)O (stereo unspecified)
LC retention time [1]: 2.2 min | LC retention time [2]: 2.21 min

CCCCCCC(O)C(=O)O (stereo unspecified)
LC retention time [1]: 5.18 min | LC retention time [2]: 4.12 min

O=C(O)c1ccc2ccccc2n1
LC retention time [1]: 3.21 min | LC retention time [2]: 3.07 min

NCCc1ccc(O)cc1
LC retention time [1]: 1.7 min | LC retention time [2]: 2.22 min

Nc1ccc(C(=O)O)cc1
LC retention time [1]: 2.41 min | LC retention time [2]: 0.852 min

NCCc1c[nH]c2ccccc12
LC retention time [1]: 2.82 min | LC retention time [2]: 3.67 min

CC(=O)NC(CC(N)=O)C(=O)O (stereo unspecified)
LC retention time [1]: 0.981 min | LC retention time [2]: 0.76 min

CSc1ncnc2nc[nH]c12
LC retention time [1]: 3.43 min | LC retention time [2]: 3.28 min

OCC1OCC(O)C(O)C1O (stereo unspecified)
LC retention time [1]: 0.864 min | LC retention time [2]: 0.865 min

CCCCCCCC(=O)NCC(=O)O
LC retention time [1]: 5.22 min | LC retention time [2]: 4.67 min

OCCc1c[nH]c2ccccc12
LC retention time [1]: 4.22 min | LC retention time [2]: 4.36 min

CC(C)NCC(O)COc1ccc(CC(N)=O)cc1 (stereo unspecified)
LC retention time [1]: 2.35 min | LC retention time [2]: 3.57 min

Cn1cnc2c(ncn2C2OC(CO)C(O)C2O)c1=N (stereo unspecified)
LC retention time [1]: 2.33 min | LC retention time [2]: 3.02 min

O=C(O)c1ccccn1
LC retention time [1]: 1.14 min | LC retention time [2]: 1.2 min

O=c1[nH]cnc2c1ncn2C1OC(CO)C(O)C1O (stereo unspecified)
LC retention time [1]: 1.92 min | LC retention time [2]: 1.9 min

COc1cccc(OC)c1C(=O)O
LC retention time [1]: 3.65 min | LC retention time [2]: 2.18 min

O=C(O)CN(CCO)CCO
LC retention time [1]: 0.765 min | LC retention time [2]: 0.874 min

NC(=O)c1cccnc1
LC retention time [1]: 1.4 min | LC retention time [2]: 2.14 min

NC(=O)CCCCC1CCSS1 (stereo unspecified)
LC retention time [1]: 4.6 min | LC retention time [2]: 4.75 min

CCCCC(N)C(=O)O (stereo unspecified)
LC retention time [1]: 1.96 min | LC retention time [2]: 1.77 min

COC(=O)Cc1c[nH]c2ccccc12
LC retention time [1]: 4.85 min | LC retention time [2]: 5.01 min

O=C1CCCc2[nH]ccc21
LC retention time [1]: 2.95 min | LC retention time [2]: 3.04 min

Cc1cccc(C(=O)O)c1O
LC retention time [1]: 5.29 min | LC retention time [2]: 3.44 min

CCC1(C)CC(=O)NC1=O (stereo unspecified)
LC retention time [1]: 3.39 min | LC retention time [2]: 3.44 min

Nc1ccccc1S(=O)(=O)O
LC retention time [1]: 1.79 min | LC retention time [2]: 1.68 min

Cc1cn(C2CC(O)C(COP(=O)(O)O)O2)c(=O)[nH]c1=O (stereo unspecified)
LC retention time [1]: 1.76 min | LC retention time [2]: 0.908 min

O=C(O)c1cccc(O)c1
LC retention time [1]: 3.47 min | LC retention time [2]: 0.886 min

Nc1c(O)cccc1C(=O)O
LC retention time [1]: 2.57 min | LC retention time [2]: 0.924 min

NCCc1c[nH]c2ccc(O)cc12
LC retention time [1]: 1.9 min | LC retention time [2]: 2.35 min

CNCCc1ccc(O)cc1
LC retention time [1]: 1.79 min | LC retention time [2]: 2.43 min

NC(=O)c1ccccc1O
LC retention time [1]: 3.56 min | LC retention time [2]: 3.12 min

CC(CN)C(=O)O (stereo unspecified)
LC retention time [1]: 0.839 min | LC retention time [2]: 0.808 min

Nc1cc(O)cc(C(=O)O)c1
LC retention time [1]: 1.32 min | LC retention time [2]: 0.812 min

COc1cc(CCN)ccc1O
LC retention time [1]: 1.99 min | LC retention time [2]: 2.57 min

CCCCCC(=O)NCC(=O)O
LC retention time [1]: 4.08 min | LC retention time [2]: 3.29 min

CSCCC(NC=O)C(=O)O (stereo unspecified)
LC retention time [1]: 2.78 min | LC retention time [2]: 1.75 min

Oc1ccc(O)cc1
LC retention time [1]: 2.83 min | LC retention time [2]: 1.95 min

Nc1nc2c(ncn2C2OC(CO)C(O)C2O)c(=O)[nH]1 (stereo unspecified)
LC retention time [1]: 1.92 min | LC retention time [2]: 1.98 min

O=C(O)C(O)Cc1ccc(O)cc1 (stereo unspecified)
LC retention time [1]: 2.87 min | LC retention time [2]: 1.51 min

CC(=O)NC1C(O)OC(CO)C(O)C1OC(C)C(=O)O (stereo unspecified)
LC retention time [1]: 1.91 min | LC retention time [2]: 0.854 min

O=C(O)Cc1c[nH]c2ccc(O)cc12
LC retention time [1]: 2.92 min | LC retention time [2]: 1.72 min

CCOC(=O)c1ccc(N)cc1
LC retention time [1]: 4.4 min | LC retention time [2]: 4.61 min
